Columns and labels:
[1] = in vitro; conditions: human, TOX HELA CC50 (μM)
Procedure: Black 384-well clear-bottom microtiter plates (Corning, Amsterdam, The Netherlands) were filled via acoustic drop ejection using the echo liquid handler (Labcyte, Sunnyvale, Calif.). 200 nL of compound stock solutions (100% DMSO) were transferred to the assay plates. 9 serial 4-fold dilutions of compound were made, creating per quadrant the same compound concentration. The assay was initiated by adding 10 μL of culture medium to each well (RPMI medium without phenol red, 10% FBS-heat inactivated, 0.04% gentamycin (50 mg/mL). All addition steps are done by using a multidrop dispenser (Thermo Scientific, Erembodegem, Belgium). Next, rgRSV224 virus (MOI=1) diluted in culture medium was added to the plates. rgRSV224 virus is an engineered virus that includes an additional GFP gene (Hallak L K, Spillmann D, Collins P L, Peeples M E. Glycosaminoglycan sulfation requirements for respiratory syncytial virus infection; Journal of virology (2000), 74(22), 10508-13) and was in-licensed from the NIH (Bethesda, Md., USA). Finally, 20 μL of a HeLa cell suspension (3,000 cells/well) were plated. Medium, virus- and mock-infected controls were included in each test. The wells contain 0.05% DMSO per volume. Cells were incubated at 37° C. in a 5% CO2 atmosphere. Three days post-virus exposure, viral replication was quantified by measuring GFP expression in the cells by an in house developed MSM laser microscope (Tibotec, Beerse, Belgium). The EC50 was defined as the 50% inhibitory concentration for GFP expression. In parallel, compounds were incubated for three days in a set of white 384-well microtiter plates (Corning) and the cytotoxicity of compounds in HeLa cells was determined by measuring the ATP content of the cells using the ATPlite kit (Perkin Elmer, Zaventem, Belgium) according to the manufacturer's instructions. The CC50 was defined as the 50% concentration for cytotoxicity.

[2] = tested on: rgRSV224 virus; assay: Antiviral activity: rgRSV224 (GFP) replication in HeLa cells; format: cell-based, respiratory syncytial virus (RSV); conditions: human respiratory syncytial virus, HeLa, 72 h, read-out: RSV HELA EC50 (μM), rgRSV224 virus (MOI=1), HeLa cells, GFP expression three days post-virus exposure

Compound | melting point | CC50 at 3 days [1] | EC50 [2]
C[C@@H]1c2ccccc2CCN1C(=O)c1cc(C2CC2)n2nc(-c3ccc(N4CC[C@@H](C(N)=O)[C@H]4C)cc3F)cc2n1 (single isomer, unassigned) [Compound 80, (2*R,3*R)-1-(4-{7-Cyclopropyl-5-[(1R)-1-methyl-1,2,3,4-tetrahydroisoquinoline-2-carbonyl]pyrazolo[1,5-a]pyrimidin-2-yl}-3-fluorophenyl)-2-methylpyrrolidine-3-carboxamide] | 182.93 °C | 35.9 µM | 0.091 µM
C[C@@H]1c2ccccc2CCN1C(=O)c1cc(-c2ccc(C#N)cc2)n2nc(-c3ccc(N4CC[C@H](C(N)=O)C4)cc3F)cc2n1 [Compound 62, (3S)-1-{4-[7-(4-Cyanophenyl)-5-[(1R)-1-methyl-1,2,3,4-tetrahydroisoquinoline-2-carbonyl]pyrazolo[1,5-a]pyrimidin-2-yl]-3-fluorophenyl}pyrrolidine-3-carboxamide] | 173.36 °C | > 100 µM | 0.043 µM
C[C@@H]1c2ccccc2CCN1C(=O)c1cc(C2CC2)n2nc(-c3ccc(N4CC(CC(N)=O)C4)nc3F)cc2n1 [Compound 92, 2-[1-(5-{7-Cyclopropyl-5-[(1R)-1-methyl-1,2,3,4-tetrahydroisoquinoline-2-carbonyl]-pyrazolo[1,5-a]pyrimidin-2-yl}-6-fluoropyridin-2-yl)azetidin-3-yl]acetamide] | – | 41.5 µM | 0.071 µM
C[C@@H]1c2ccccc2CCN1C(=O)c1cc(-c2cncnc2)n2nc(-c3ccc(N4CC[C@H](C(N)=O)C4)cc3F)cc2n1 [Compound 64, (3S)-1-(3-Fluoro-4-{5-[(1R)-1-methyl-1,2,3,4-tetrahydroisoquinoline-2-carbonyl]-7-(pyrimidin-5-yl)pyrazolo[1,5-a]pyrimidin-2-yl}phenyl)pyrrolidine-3-carboxamide] | – | 8.9 µM | 0.029 µM
COC(=O)N[C@@H]1CCN(c2ccc(-c3cc4nc(C(=O)N5CCc6ccccc6[C@H]5C)cc(C5CC5)n4n3)c(F)c2)C1 [Compound 9, Methyl N-[(3R)-1-[4-{7-cyclopropyl-5-[(1R)-1-methyl-1,2,3,4-tetrahydroisoquinoline-2-carbonyl]pyrazolo[1,5-a]pyrimidin-2-yl}-3-fluorophenyl)pyrrolidin-3-yl]carbamate] | – | > 100 µM | 0.108 µM
C[C@@H]1c2ccsc2CCN1C(=O)c1cc(C2CC2)n2nc(-c3ccc(N4CC[C@](C)(C(N)=O)C4)cc3F)cc2n1 (single isomer, unassigned) [Compound 45, (3*S)-1-(4-{7-Cyclopropyl-5-[(4*R)-4-methyl-4,5,6,7-tetrahydro-thieno[3,2-c]pyridine-5-carbonyl]pyrazolo[1,5-a]pyrimidin-2-yl}-3-fluorophenyl)-3-methylpyrrolidine-3-carboxamide] | – | 31.4 µM | 0.02 µM
C[C@@H]1c2ccccc2CCN1C(=O)c1cc(C2CC2)n2nc(-c3ccc(N4CC[C@H](N)C4)cc3F)cc2n1 [Compound 93, (2-(4-((S)-3-aminopyrrolidin-1-yl)-2-fluorophenyl)-7-cyclopropylpyrazolo[1,5-a]pyrimidin-5-yl)((R)-1-methyl-3,4-dihydroisoquinolin-2(1H)-yl)methanone] | – | 13.4 µM | 0.039 µM
C[C@@H]1c2ccsc2CCN1C(=O)c1cc(C2CC2)n2nc(-c3ccc(N4CC[C@@](C)(C(N)=O)C4)cc3F)cc2n1 (single isomer, unassigned) [Compound 44, (3*R)-1-(4-{7-Cyclopropyl-5-[(4*R)-4-methyl-4,5,6,7-tetrahydro-thieno[3,2-c]pyridine-5-carbonyl]pyrazolo[1,5-a]pyrimidin-2-yl}-3-fluorophenyl)-3-methylpyrrolidine-3-carboxamide] | – | 45.2 µM | 0.019 µM
C[C@@H]1c2ccccc2CCN1C(=O)c1cc(C2CC2)n2nc(-c3ccc(N4CC[C@H](NS(C)(=O)=O)C4)cc3F)cc2n1 [Compound 12, N-[(3S)-1-(4-{7-Cyclopropyl-5-[(1R)-1-methyl-1,2,3,4-tetrahydroisoquinoline-2-carbonyl]pyrazolo[1,5-a]pyrimidin-2-yl}-3-fluorophenyl)pyrrolidin-3-yl]methane-sulfonamide] | – | > 100 µM | 0.041 µM
C[C@@H]1c2ccccc2CCN1C(=O)c1cc(-c2ccc(C(F)(F)F)cc2)n2nc(-c3ccc(N4CC[C@H](C(N)=O)C4)cc3F)cc2n1 [Compound 61, (3S)-1-(3-Fluoro-4-{5-[(1R)-1-methyl-1,2,3,4-tetrahydroisoquinoline-2-carbonyl]-7-[4-(trifluoromethyl)phenyl]pyrazolo[1,5-a]pyrimidin-2-yl}phenyl)pyrrolidine-3-carboxamide] | – | > 100 µM | 0.193 µM
C[C@@H]1c2ccccc2CCN1C(=O)c1cc(C2CC2)n2nc(-c3ccc(N4CCC(O)(CO)C4)cc3F)cc2n1 (single isomer, unassigned) [Compound 103] | – | 35.8 µM | 0.019 µM
C[C@@H]1c2ccccc2CCN1C(=O)c1cc(C2CC2)n2nc(-c3ccc(N4CC[C@H](c5noc(=O)[nH]5)C4)cc3F)cc2n1 [Compound 4, 3-[(3S)-1-(4-{7-Cyclopropyl-5-[(1R)-1-methyl-1,2,3,4-tetrahydroisoquinoline-2-carbonyl]pyrazolo[1,5-a]pyrimidin-2-yl}-3-fluorophenyl)pyrrolidin-3-yl]-4,5-dihydro-1,2,4-oxadiazol-5-one] | – | 23 µM | 0.049 µM
C[C@@H]1c2ccccc2CCN1C(=O)c1cc(C2CC2)n2nc(-c3ccc(N4CC[C@H](C(C)(C)C(N)=O)C4)cc3F)cc2n1 (single isomer, unassigned) [Compound 27, 2-[(3*R)-1-(4-{7-Cyclopropyl-5-[(1R)-1-methyl-1,2,3,4-tetrahydroisoquinoline-2-carbonyl]pyrazolo[1,5-a]pyrimidin-2-yl}-3-fluorophenyl)pyrrolidin-3-yl]-2-methylpropanamide] | – | 34.4 µM | 0.089 µM
CO[C@H]1CN(c2ccc(-c3cc4nc(C(=O)N5CCc6ccccc6[C@H]5C)cc(C5CC5)n4n3)c(F)c2)C[C@@H]1O (stereo in doubt) [Compound 96, (7-cyclopropyl-2-(2-fluoro-4-((trans)-3-hydroxy-4-methoxypyrrolidin-1-yl)phenyl)pyrazolo[1,5-a]pyrimidin-5-yl)((R)-1-methyl-3,4-dihydroisoquinolin-2(1H)-yl)methanone] | – | 22.5 µM | 0.05 µM
C[C@@H]1c2ccccc2CCN1C(=O)c1cc(-c2cncc(F)c2)n2nc(-c3ccc(N4CC[C@H](C(N)=O)C4)cc3F)cc2n1 [Compound 90, (3S)-1-{3-Fluoro-4-[7-(5-fluoropyridin-3-yl)-5-[(1R)-1-methyl-1,2,3,4-tetrahydro-isoquinoline-2-carbonyl]pyrazolo[1,5-a]pyrimidin-2-yl]phenyl}pyrrolidine-3-carboxamide] | 269.08 °C | – | 0.046 µM
C[C@@H]1c2ccccc2CCN1C(=O)c1cc(C2CC2)n2nc(-c3ccc(N4CC[C@H](OC(N)=O)C4)cc3F)cc2n1 [Compound 78, (3S)-1-(4-{7-Cyclopropyl-5-[(1R)-1-methyl-1,2,3,4-tetrahydroisoquinoline-2-carbonyl]pyrazolo[1,5-a]pyrimidin-2-yl}-3-fluorophenyl)pyrrolidin-3-yl carbamate] | – | 47.3 µM | 0.055 µM
C[C@@H]1c2ccsc2CCN1C(=O)c1cc(C2CC2)n2nc(-c3ccc(N4CC[C@H](C(C)(C)C(N)=O)C4)cc3F)cc2n1 (single isomer, unassigned) [Compound 29, 2-[(3*R)-1-(4-{7-Cyclopropyl-5-[(4*R)-4-methyl-4,5,6,7-tetrahydro-thieno[3,2-c]pyridine-5-carbonyl]pyrazolo[1,5-a]pyrimidin-2-yl}-3-fluorophenyl)pyrrolidin-3-yl]-2-methyl-propanamide] | – | 43.7 µM | 0.045 µM
CNC(=O)O[C@H]1CCN(c2ccc(-c3cc4nc(C(=O)N5CCc6ccccc6[C@H]5C)cc(C5CC5)n4n3)c(F)c2)C1 [Compound 16, (3S)-1-(4-{7-Cyclopropyl-5-[(1R)-1-methyl-1,2,3,4-tetrahydroisoquinoline-2-carbonyl]-pyrazolo[1,5-a]pyrimidin-2-yl}-3-fluorophenyl)pyrrolidin-3-yl N-methylcarbamate] | – | > 100 µM | 0.11 µM
C[C@@H]1c2ccccc2CCN1C(=O)c1cc(C2CC2)n2nc(-c3ccc(N4CC[C@@H](c5nnn[nH]5)C4)cc3F)cc2n1 [Compound 2, (1R)-2-(7-Cyclopropyl-2-{2-fluoro-4-[(3R)-3-(1H-1,2,3,4-tetrazol-5-yl)pyrrolidin-1-yl]phenyl}pyrazolo[1,5-a]pyrimidine-5-carbonyl)-1-methyl-1,2,3,4-tetrahydroisoquinoline] | – | 38.7 µM | 0.056 µM
C[C@@H]1c2ccccc2CCN1C(=O)c1cc(C2CC2)n2nc(-c3ccc(N4CC[C@](C)(CC(N)=O)C4)cc3F)cc2n1 (single isomer, unassigned) [Compound 23, 2-[(3*R)-1-(4-{7-Cyclopropyl-5-[(1R)-1-methyl-1,2,3,4-tetrahydroisoquinoline-2-carbonyl]pyrazolo[1,5-a]pyrimidin-2-yl}-3-fluorophenyl)-3-methylpyrrolidin-3-yl]acetamide] | – | 30.3 µM | 0.032 µM
COc1cc(N2CC[C@H](C(N)=O)C2)nc(F)c1-c1cc2nc(C(=O)N3CCc4ccccc4[C@H]3C)cc(C3CC3)n2n1 [Compound 86, (3S)-1-(5-{7-Cyclopropyl-5-[(1R)-1-methyl-1,2,3,4-tetrahydroisoquinoline-2-carbonyl]-pyrazolo[1,5-a]pyrimidin-2-yl}-6-fluoro-4-methoxypyridin-2-yl)pyrrolidine-3-carboxamide] | – | 49.5 µM | 0.161 µM

— patent publication US11339165B2, “Pyrazolopyrimidines having activity against the respiratory syncytial virus (RSV)” (priority 2017, dated 2022)
